Source: ChEMBL document CHEMBL5512642, “Novel triterpenoid pyrones, phthalimides and phthalates are selectively cytotoxic in CCRF-CEM cancer cells - Synthesis, potency, and mitochondrial mechanism of action” (Eur J Med Chem, 2024)
pIC50: −log10 of the molar value.

Legend:
CCRF-CEM = assay: Cytotoxicity against human CCRF-CEM cells assessed as reduction in cell viability incubated for 72 hrs by MTS assay; assay type: functional, cell-based
HCT 116 TP53(-/-) = assay: Cytotoxicity against human HCT116-p53-null cells assessed as reduction in cell viability incubated for 72 hrs by MTS assay; assay type: functional, cell-based
A549 = assay: Cytotoxicity against human A549 cells assessed as reduction in cell viability incubated for 72 hrs by MTS assay; assay type: functional, cell-based; conditions: A549, 72 h
K562 = assay: Cytotoxicity against human K562 cells assessed as reduction in cell viability incubated for 72 hrs by MTS assay; assay type: functional, cell-based; conditions: K562, 72 h
U2OS = assay: Cytotoxicity against human U2OS cells assessed as reduction in cell viability incubated for 72 hrs by MTS assay; assay type: functional, cell-based
HCT-116 = assay: Cytotoxicity against human HCT-116 cells assessed as reduction in cell viability incubated for 72 hrs by MTS assay; assay type: functional, cell-based; conditions: HCT-116, 72 h
[1] = Cytotoxicity against human MRC5 cells assessed as reduction in cell viability incubated for 72 hrs by MTS assay; assay type: toxicity, cell-based
[2] = Cytotoxicity against human BJ cells assessed as reduction in cell viability incubated for 72 hrs by MTS assay; assay type: toxicity, cell-based
[3] = Cytotoxicity against human K562-Tax cells assessed as reduction in cell viability incubated for 72 hrs by MTS assay; assay type: functional, cell-based
CEM-DNR = assay: Cytotoxicity against human CEM-DNR cells assessed as reduction in cell viability incubated for 72 hrs by MTS assay; assay type: functional, cell-based

Structure (SMILES)	pIC50 (CCRF-CEM)	pIC50 (HCT 116 TP53(-/-))	pIC50 (A549)	pIC50 (K562)	pIC50 (U2OS)	pIC50 (HCT-116)	IC50 at 72 h [1]	IC50 at 72 h [2]	pIC50 [3]	pIC50 (CEM-DNR)
C[C@H]1[C@H](C)CC[C@]2(C(=O)O)CC[C@]3(C)C(=CC[C@@H]4[C@@]5(C)CC(C(=O)C(F)(F)F)C(=O)C(C)(C)[C@@H]5CC[C@]43C)[C@H]12 (stereo partly specified)	5.08	4.37	4.64	4.64	< 4.30	4.46	> 50 µM	> 50 µM		
C[C@H]1[C@H](C)CC[C@]2(C(=O)O)CC[C@]3(C)C(=CC[C@@H]4[C@@]5(C)Cc6c(C(F)(F)F)cc7c(c6C(C)(C)[C@@H]5CC[C@]43C)C(=O)N(c3ccccc3)C7=O)[C@H]12	< 4.30	< 4.30	< 4.30	< 4.30	< 4.30	< 4.30	> 50 µM	> 50 µM	< 4.30	< 4.30
COC(=O)c1cc(C(F)(F)F)c2c(c1C(=O)OC)C(C)(C)[C@@H]1CC[C@]3(C)[C@H](CC[C@@H]4[C@H]5[C@H](C(C)C)CC[C@]5(C(=O)O)CC[C@]43C)[C@@]1(C)C2	5.28	< 4.30	< 4.30	< 4.30	4.96	< 4.30	> 50 µM	> 50 µM	< 4.30	< 4.30
COC(=O)c1cc(C(F)(F)F)c2c(c1C(=O)OC)C(C)(C)[C@@H]1CC[C@]3(C)[C@H](CC=C4[C@@H]5[C@@H](C)[C@H](C)CC[C@]5(C(=O)O)CC[C@]43C)[C@@]1(C)C2	5.29	4.59	4.77	4.55	4.62	4.42	> 50 µM	> 50 µM	< 4.30	< 4.30
C=C(C)[C@@H]1CC[C@]2(C(=O)O)CC[C@]3(C)[C@H](CC[C@@H]4[C@@]5(C)CC(C(=O)C(F)(F)F)C(=O)C(C)(C)[C@@H]5CC[C@]43C)[C@@H]12 (stereo partly specified)	5.14	4.52	4.92	4.89	4.52	4.62	> 50 µM	> 50 µM		
